# Key:
# [1] = system: human bladder cancer cell line NTUB1; test: Trial (A): cytotoxic effect, IC50 by median-effect analysis; assay type: cell-based; details: NTUB1 cells
# From the text: (§1) For the sake of proving therapeutic effects of the derivatives of 18β-glycyrrhetinic acid of the present invention, including 10, 11, 13-17 and 21-25, in treating of cancer, human bladder cancer cell line NTUB1, human prostate cancer cell line PC3 cataloged as CRL-1435 (reference to J. Formosan Med. Assoc. 1992; 91:608-13), and immortalized normal human urothelial cells SV-HUC1 cataloged as CRL-9520 are purchased from American Type Culture Collection (ATCC; Rockville, USA) and maintained in a culturing medium respectively till at a preferable density to carry out a serial of trials (comprising trial A to G) for evaluating cytotoxicities of the derivatives of 18β-glycyrrhetinic acid against cancer cells, and mechanisms thereof.
# In the present invention, the NTUB1 and the PC3 is but not limit to be maintained in RPMI 1640 medium supplemented 10% fetal bovine serum (FBS), 100 unit/mL penicillin-G, 100 μg/mL streptomycin, and 2 mM L-glutamine, yet the SV-HUC1 is maintained in F12 medium supplemented with 10% fetal bovine serum (FBS), 100 unit/mL penicillin-G, 100 μg/mL streptomycin, and 2 mM L-glutamine, culturing at 37° C. in a humidified atmosphere containing 5% CO2 till at a density of 70% per well, followed by repeatedly suspending cells in each well with an ethylene diamine tetra-acetic acid buffer (EDTA buffer; Merck) and counting cell numbers.
# In the present invention, the IC50 values of each group are presented as mean±standard deviation (SD).
# [2] = system: p-p53 (Ser15); test: Trial (G): expression of p53 / p-p53 by Western blot; assay type: cell-based, human; details: 10, 25, 50 μM, 24 hours, NTUB1
# Experimental: In trial (G), expression of p53 is monitored via Western blot analysis in accordance with a journal article published by Son et al., at 2010 in Toxicol. Appl. Pharmacol., in which overproduction ROS induced p53 suppression is observed.
# Referring to TABLE 7, the NTUB1 cells at a density of 8×10^5 cells/ml are prepared and assigned into 9 groups, including G1-1 to G1-5 and G2-1 to G2-4, to incubate in various medium for 24 hours, followed by harvesting in trypsinization, resuspending in PBS till at a suitable density and collecting the NTUB1 cells of each group respectively.
# Next, the NTUB1 cells of each group are further diluted with equal volume of 2× sample buffer, boiled for 10 minutes twice to denature protein therein, and analyzed by SDS-PAGE. After that, proteins on SDS-PAGE datum are transferred to nitrocellulose membranes (Millipore, Billerica, Mass., USA) using a semi-dry blotter, followed by blocking with 5% (w/v) skimmed milk in TBST buffer (100 mM Tris-HCl (pH 7.5), 150 mM NaCl and 0.1% Tween-20), incubating with specific antibodies [including antibodies specific for b-acctin (NB600-501), p-p53 (Ser15) (9284) and p53 (DO1)]. at 4° C. overnight, washing with TBST buffer again and incubated with secondary antibody at room temperature. Finally, western data of each group are visualized on Fuji SuperRX film. […]
# [3] = system: NTUB1; test: Trial (B): MTT cytotoxicity assay, 72 hours; assay type: cell-based, human; details: 0-50 μM
# From the text: as §1, with “thereof. […]” for “thereof.”
# In trial (B), the cell lines of NTUB1, PC3, and SV-HUC1 are prepared in 96-well plates and co-incubated with the compounds 21, 23 or 25 in various concentrations of 0, 0.3, 1, 3, 5, 10, 30 and 50 μM, to analyze cytotoxic effects against either cancer cell or normal cells via a modified 3-[4,5-dimethylthiazol-2-yl]-2,5-diphenyltetrazolium bromide (MTT, Sigma Chemical Co.) assay. […] At co-incubation, 50 μL of MTT (2 mg/mL in PB) is added to each well to react for 3 hours, followed by centrifugating the 96-well plates at 1000 g for 10 min to remove supernatant, adding 150 μL DMSO in each well of the 96-well plates, and determining viability rates of the NTUB1, PC3, and SV-HUC1 cells separately by an absorbance spectrometry at 540 nm with a MRX (DYNEXCO) microplate reader.
smiles,measurement,setting,value
"C=C(C)[C@@H]1CC[C@]2(C)[C@H](C(=O)C=C3[C@@H]4C[C@@](C)(C(=O)NC(C)C)CC[C@]4(C)CC[C@]32C)[C@@]1(C)CCC(=O)NC(C)C [Compound 25, 3,4-seco-11-oxo-18β-olean-4(23),12-dien-3,30-diisopropyl carbamate]",cytotoxic effect against cancer cell,[1]; with reference to TABLE 2,significantly suppress the growth of cancer cells with a lower concentrate
same,IC50,[1]; mean ± SD,4.76 ± 1.15 µM
same,"levels of p-p53 (Western blot, FIGS. 9, 10)",[2],increase levels of p-p53 in a dose-dependent manner
same,"cytotoxic effect (survival ratio, FIGS. 4-6)",[3],"cytotoxic effects against to the cancer cells in a dose-dependent manner, particularly in against to NTUB1 cell"
